# Measurements reported in patent US9702007B2, “Genetic markers predictive of response to glatiramer acetate” (TEVA PHARMACEUTICALS INDUSTRIES, LTD., priority 2013, dated 2017).
# Where “and” joins values, the source holds several entries; their conditions need not be identical. Equal entries are not always repeated. Where two headings read alike, the source gives them in different places.
# What was measured:
# [1] = system: RRMS subjects; settings: cited from earlier work
# [2] = system: RRMS patients; settings: cited from earlier work
# [3] = system: RRMS patients; assay: Combined GALA and FORTE cohorts: patient responses by preliminary predictive model (11 SNPs and 2 clinical co-variates, threshold 0.71); type: in vivo, human; parameters: ARR reduced (improved) by: concentration or dose not given beside the values
# Method: A predictive model was generated based on the 11 SNPs shown in tables 42, 43, 44a and 44b and the two Clinical co-variants shown in table 33.
# Receiver Operating Characteristic (ROC) analysis was performed using the actual value (case or control) and predicted value for each sample from the multi-marker regression model (FIG. 1). For these preliminary analyses, two risk groups were defined using the predicted values from the multi-marker regression model. The predictive threshold value was set at 0.71 (termed “model 3”) based on a variety of factors after consultation with the Teva team and Teva MS clinical experts.
# While 40% of patients were classified as “predicted non-responders” with an overall response rate of 34% (FIG. 5).
# [4] = system: RRMS patients; assay: FORTE phase 3 trial cohort: response to glatiramer acetate, ARR by predicted responder status; type: in vivo, human; settings: for ARR reduced (improved) by: predicted responders vs predicted non-responders
# Text: As used herein, “FORTE” is a phase 3 clinical trial entitled “Clinical Trial Comparing Treatment of Relapsing-Remitting Multiple Sclerosis (RR-MS) With Two Doses of Glatiramer Acetate (GA).” The FORTE trial has the ClinicalTrials.gov Identifier NCT00337779 and additional information, including study results can be found at clinicaltrials.gov/ct2/show/NCT00337779.
# (§1) Response definitions were received from patients from two large glatiramer acetate clinical trial cohorts (GALA, FORTE) and patients were categorized as responder, non-responder, extreme-responder, or extreme non-responder according to the criteria set forth in Table 1.
# (§2) When analysis was conducted for all genotyped patients of the Gala and FORTE cohorts, based on the predictive model (11 SNPs and 2 clinical variables), 34% of GALA, and 42% of FORTE-patients were classified as “predicted responders”.
# (§3) Analysis was conducted for all genotyped patients of the Gala and FORTE cohorts, based on the 11 SNPs in the predictive model, but without including the clinical variables, and using a threshold at ˜30% of the population classified as “predicted responders” (FIG. 9).
# (§4) When analysis was conducted for all genotyped patients of the Gala and FORTE cohorts, based on the […] and 2 clinical variables, 34% of GALA, and 42% of FORTE-patients were classified as “predicted responders”.
# [5] = system: RRMS patients; assay: GALA phase 3 trial cohort: response to glatiramer acetate, ARR by predicted responder status; type: in vivo, human
# Method: As used herein, “GALA” is a phase 3 clinical trial entitled “A Study in Subjects With Relapsing-Remitting Multiple Sclerosis (RRMS) to Assess the Efficacy, Safety and Tolerability of Glatiramer Acetate (GA) Injection 40 mg Administered Three Times a Week Compared to Placebo (GALA).” The GALA trial has the ClinicalTrials.gov Identifier NCT01067521, and additional information about the trial can be found at clinicaltrials.gov/ct2/show/NCT01067521.
# as §1, §2, §3, §4
# [6] = predicted responders compared to predicted non-responders
# [7] = predicted responders compared to the overall cohort
# [8] = predicted responders compared to the overall patient cohort
# [9] = predicted responders, ± standard error of the mean
# [10] = change in ARR <-1 and new T2 lesions = 0 and relapse free
# [11] = change in ARR from previous 2 years <-1
# [12] = change in ARR from previous 2 years ≧0
# [13] = change in ARR ≧0 and new T2 lesions ≧1
# [14] = predicted non-responders, 10 SNPs and 2 clinical variables
# [15] = predicted non-responders, 11 SNPs without clinical variables
# [16] = predicted non-responders, model of 11 SNPs and 2 clinical variables
# [17] = predicted responders, 10 SNPs and 2 clinical variables, ± SEM
# [18] = predicted responders, 11 SNPs without clinical variables, threshold ~30% of population, ± SEM
# [19] = predicted responders, model of 11 SNPs and 2 clinical variables, ± SEM
substance,measurement,setting,value
glatiramer acetate,relapse rate reduced by,"[1]; GA 20 mg vs placebo, largest controlled study",32%
same,tolerability,[1]; daily standard dose of 20 mg,generally well tolerated
same,median cumulative number of Gd-enhancing lesions,"[1]; over 9 months of treatment, 20 mg group",11 lesions
same,relapse rate,"[1]; under GA 20 mg, largest controlled study",1.34
same,response rate,[2]; DRB1*1501 carriers,81.8%
same,response rate,[2]; non-carriers of DRB1*1501,39.4%
same,response rate,[2]; whole study population (N=83 RRMS),50%
same,EDSS progression,[3]; overall cohort,0.057
same,response rate,[3]; overall cohort,68%
same,annualized relapse rate (ARR),[3]; overall patient cohort,0.53±0.04
same,number of confirmed relapses (nrelapse),[3]; overall patient cohort,0.46±0.03
same,EDSS progression,[3]; predicted non-responders,0.10±0.02
same,annualized relapse rate (ARR),[3]; predicted non-responders,1.04±0.08
same,number of T1 enhancing lesions at month 12,[3]; predicted non-responders,1.70±0.38
same,number of confirmed relapses (nrelapse),[3]; predicted non-responders,0.88±0.06
same,response rate,"[3]; predicted non-responders, Gala and Forte cohorts",34%
same,EDSS progression,[3]; predicted responders,0.03±0.01
same,number of T1 enhancing lesions at month 12,[3]; predicted responders,0.91±0.18
same,ARR reduced (improved) by,[3]; [6],80%
same,improved response rate,[3]; [6],2.7 fold
same,number of T1 enhancing lesions at month 12 reduced (improved) by,[3]; [6],47%
same,number of confirmed relapses reduced (improved) by,[3]; [6],78%
same,improvement in response rate,[3]; [7],34%
same,reduced EDSS progression,[3]; [7],49%
same,ARR reduced (improved) by,[3]; [8],60%
same,number of confirmed relapses reduced (improved) by,[3]; [8],58%
same,EDSS progression delayed (improved) by,[3]; predicted responders versus predicted non-responders,72%
same,response rate,"[3]; predicted responders, Gala and Forte cohorts",91.1% and 91%
same,annualized relapse rate (ARR),[3]; [9],0.21±0.03
same,number of confirmed relapses (nrelapse),[3]; [9],0.19±0.03
same,"Extreme Responders, % of cohort",[4]; [10],(16%)
same,"Extreme Responders, number of samples",[4]; [10],95
same,"Responders, % of cohort",[4]; [11],(36%)
same,"Responders, number of samples",[4]; [11],221
same,"Non-Responders, % of cohort",[4]; [12],(11%)
same,"Non-Responders, number of samples",[4]; [12],68
same,"Extreme Non-Responders, % of cohort",[4]; [13],(6%)
same,"Extreme Non-Responders, number of samples",[4]; [13],38
same,annualized relapse rate (ARR),[4]; [14],0.368±0.039
same,annualized relapse rate (ARR),[4]; [15],0.290±0.03
same,annualized relapse rate (ARR),[4]; [16],0.368±0.039
same,ARR reduced (improved) by,[4]; 10 SNPs and 2 clinical variables,72%
same,ARR reduced (improved) by,[4]; 11 SNPs and 2 clinical variables,72%
same,ARR reduced (improved) by,[4]; 11 SNPs without clinical variables,50%
same,annualized relapse rate (ARR),[4]; [17],0.102±0.020
same,annualized relapse rate (ARR),[4]; [18],0.145±0.029
same,annualized relapse rate (ARR),[4]; [19],0.102±0.020
same,"Extreme Responders, % of cohort",[5]; [10],(8.5%)
same,"Extreme Responders, number of samples",[5]; [10],66
same,"Responders, % of cohort",[5]; [11],(26%)
same,"Responders, number of samples",[5]; [11],200
same,"Non-Responders, % of cohort",[5]; [12],(16%)
same,"Non-Responders, number of samples",[5]; [12],123
same,"Extreme Non-Responders, % of cohort",[5]; [13],(10%)
same,"Extreme Non-Responders, number of samples",[5]; [13],79
same,annualized relapse rate (ARR),[5]; [14],0.374±0.038
same,annualized relapse rate (ARR),[5]; [15],0.382±0.037
same,annualized relapse rate (ARR),[5]; [16],0.374±0.038
same,ARR reduced (improved) by,"[5]; predicted responders vs placebo, 10 SNPs and 2 clinical variables",64%
same,ARR reduced (improved) by,"[5]; predicted responders vs placebo, 11 SNPs and 2 clinical variables",64%
same,ARR reduced (improved) by,"[5]; predicted responders vs placebo, 11 SNPs without clinical variables",71%
same,ARR reduced (improved) by,"[5]; predicted responders vs predicted non-responders, 10 SNPs and 2 clinical variables",51%
same,ARR reduced (improved) by,"[5]; predicted responders vs predicted non-responders, 11 SNPs and 2 clinical variables",51%
same,ARR reduced (improved) by,"[5]; predicted responders vs predicted non-responders, 11 SNPs without clinical variables",62%
same,annualized relapse rate (ARR),[5]; [17],0.185±0.032
same,annualized relapse rate (ARR),[5]; [18],0.131±0.026
same,annualized relapse rate (ARR),[5]; [19],0.185±0.032
